Laboratory results published in patent publication US12577417B2, “Active energy ray-curable aqueous ink, recording method and recording apparatus” (CANON KABUSHIKI KAISHA, priority 2021, dated 2026).

Assay: Water solubility of bifunctional polymerizable monomer
Format: physicochemical
Conditions: mixed with ion exchanged water at 25° C.; concentration at which no insoluble matter is found by visual observation
Protocol: When a bifunctional polymerizable monomer is mixed with ion exchanged water at 25° C. and the concentration at which no insoluble matter is found as a result of visual observation of the resulting mixture is shown as water solubility. Higher water solubility is preferred and the evaluation criteria is as follows.
A: no insoluble matter is found at 20% by mass
B: no insoluble matter is found at 5% by mass
C: no insoluble matter is found at 1% by mass
D: an insoluble matter is found at 1% by mass

SMILES | Water solubility
C=CC(=O)NCCCCCC(=O)NCCOCCOCCNC(=O)CCCCCNC(=O)C=C [Curable substance 2] | C (no insoluble matter is found at 1% by mass)
C=CC(=O)NCCC(=O)NCCOCCOCCNC(=O)CCNC(=O)C=C [Curable substance 1] | A (no insoluble matter is found at 20% by mass)
C=CC(=O)NCCC(=O)NCCCNC(=O)CCNC(=O)C=C [Curable substance 3] | B (no insoluble matter is found at 5% by mass)
C=CC(=O)NCCCCCC(=O)NCCNC(=O)CCCCCNC(=O)C=C [Curable substance 12] | C (no insoluble matter is found at 1% by mass)
C=CC(=O)NCCCOCCOCCOCCCN(O)C(=O)C=C [Comparative compound 1, reference compound] | A (no insoluble matter is found at 20% by mass)
C=CC(=O)NCCOCCOCCNC(=O)C=C [Comparative compound 2, reference compound] | A (no insoluble matter is found at 20% by mass)
C=CC(=O)NCCCC(=O)NCCCNC(=O)CCCNC(=O)C=C [Curable substance 4] | B (no insoluble matter is found at 5% by mass)
